Measured values as given in patent publication US9884823B2, “Oxime ether acetate compound, preparation method therefor and weeding application thereof” (ZHEJIANG UNIVERSITY OF TECHNOLOGY, priority 2014, dated 2018).
Like-named read-outs stand apart in the source and are kept apart here.

Key:
Wheat = assay: Culture dish method (general screening); type: in vivo; conditions: 100 mg/L, 7 days
Description: (§3) Culture dish method (general screening): The test targets were radish, cucumber, rape, wheat, sorghum and barnyard grass; the seeds of wheat, sorghum and radish were germinated in advance, and the uniform emerge-germinating seeds were used in the test.

Chinese sorghum = assay: Culture dish method (general screening); type: in vivo; conditions: 100 mg/L, 7 days
Description: as §3

Barnyardgrass = assay: Culture dish method (general screening); type: in vivo, barnyard grass; conditions: 100 mg/L, 7 days
Description: as §3

Cucumber = assay: Culture dish method (general screening); type: in vivo; conditions: 100 mg/L, 7 days
Description: as §3

Rape = assay: Culture dish method (general screening); type: in vivo; conditions: 100 mg/L, 7 days
Description: as §3

Radish = assay: Culture dish method (general screening); type: in vivo; conditions: 100 mg/L, 7 days
Description: as §3

Abutilon = assay: Potted plants live body test; type: in vivo; conditions: 150 g a.i./ha, 30 days, Table 9
Description: (§1) The raw drug which was selected from the compounds in table 1 was weighed using an analytical balance (0.0001 g), and dissolved in DMF containing 1 wt % Tween-80 emulsifier to prepare a mother liquor of raw drug with a mass concentration of 1.0˜5.0%, and then diluted with distilled water, to prepare preparations at desired concentrations according to the ratio of ingredients in Examples 8, 9 and 10.
(§2) The test targets were mustard, small quinoa, Abutilon, amaranthus retroflexus, Eclipta prostrata, crabgrass, dog point. A pot with a diameter of 7.5 cm was used, filled with composite soil (garden soil:nursery matrix, 1:2, v/v) to ¾ of the pot, then the above […] kinds of weeds targets were directly seeded (germination rate ≧85%), covered with soil at a thickness of 0.2 cm. When the weeds grew to 3-leaf stage, pre-emergence soil treatment for weeds planting, and then spraying was performed.

Crabgrass = assay: Potted plants live body test; type: in vivo; conditions: 150 g a.i./ha, 30 days, Table 9
Description: as §1, §2

Dog point = assay: Potted plants live body test; type: in vivo; conditions: 150 g a.i./ha, 30 days, Table 9
Description: as §1, §2

Eclipta prostrata = assay: Potted plants live body test; type: in vivo; conditions: 150 g a.i./ha, 30 days, Table 9
Description: as §1, §2

amaranthus retroflexus = assay: Potted plants live body test; type: in vivo; conditions: 150 g a.i./ha, 30 days, Table 9
Description: as §1, §2

Small quinoa = conditions: 150 g a.i./ha, 30 days, Table 9
Description: as §1, §2

[1] = test system: broadleaf weeds such as mustard, small quinoa, Abutilon, Amaranthus retroflexus and Eclipta prostrate; conditions: 150 g a.i./ha; for herbicidal activity on broadleaf weeds targets: 30 days after administration, Table 9 summary; for activity on the growth of broadleaf weeds: postemergence spraying, 30 days, vs clear water control
Description: as §1, §2

[2] = test system: grass weeds such as crabgrass, barnyard grass, dog point; conditions: 150 g a.i./ha; for activity for grass targets such as crabgrass and dog point: 30 days after administration, Table 9 summary; for activity on grass weeds such as crabgrass, dog point: postemergence spraying, 30 days
Description: as §1, §2

Mustard = conditions: 150 g a.i./ha, 30 days, Table 9

CON=C(C(=O)OC)c1ccccc1COc1cccc(-c2ccc(Cl)cn2)c1 [Compound 19]
inhibition rate, Wheat Root (Wheat): 30%
inhibition rate, Wheat Stem (Wheat): 0%
inhibition rate, Chinese sorghum Root (Chinese sorghum): 80%
inhibition rate, Chinese sorghum Stem (Chinese sorghum): 30%
inhibition rate, Barnyardgrass Root (Barnyardgrass): 70%
inhibition rate, Barnyardgrass Stem (Barnyardgrass): 30%
inhibition rate, Cucumber Root (Cucumber): 90%
inhibition rate, Cucumber Stem (Cucumber): 70%
inhibition rate, Rape Root (Rape): 100%
inhibition rate, Rape Stem (Rape): 100%
inhibition rate, Radish Root (Radish): 80%
inhibition rate, Radish Stem (Radish): 80%
efficiency, Abutilon (Abutilon; Postemergence spraying): 40%
efficiency, Abutilon (Abutilon; Pre-emergence soil treatment): 0%
efficiency, Crabgrass (Crabgrass; Postemergence spraying): 0%
efficiency, Crabgrass (Crabgrass; Pre-emergence soil treatment): 0%
efficiency, Dog point (Dog point; Postemergence spraying): 0%
efficiency, Dog point (Dog point; Pre-emergence soil treatment): 0%
efficiency, Eclipta prostrata (Eclipta prostrata; Postemergence spraying): 50%
efficiency, Eclipta prostrata (Eclipta prostrata; Pre-emergence soil treatment): 0%
efficiency, amaranthus retroflexus (amaranthus retroflexus; Postemergence spraying): 50%
efficiency, amaranthus retroflexus (amaranthus retroflexus; Pre-emergence soil treatment): 30%
efficiency, Small quinoa (Small quinoa; Postemergence spraying): 60%
efficiency, Small quinoa (Small quinoa; Pre-emergence soil treatment): 25%
herbicidal activity on broadleaf weeds targets [1]: herbicidal activity
activity on the growth of broadleaf weeds [1]: inhibitory activity
activity for grass targets such as crabgrass and dog point [2]: poor activity
activity on grass weeds such as crabgrass, dog point [2]: almost have no activity
efficiency, Mustard (Mustard; Postemergence spraying): 50%
efficiency, Mustard (Mustard; Pre-emergence soil treatment): 0%

CON=C(C(=O)OC)c1ccccc1COc1ccc(-c2ccc(Cl)cn2)cc1 [Compound 27]
inhibition rate, Wheat Root (Wheat): 50%
inhibition rate, Wheat Stem (Wheat): 0%
inhibition rate, Chinese sorghum Root (Chinese sorghum): 50%
inhibition rate, Chinese sorghum Stem (Chinese sorghum): 0%
inhibition rate, Barnyardgrass Root (Barnyardgrass): 60%
inhibition rate, Barnyardgrass Stem (Barnyardgrass): 30%
inhibition rate, Cucumber Root (Cucumber): 60%
inhibition rate, Cucumber Stem (Cucumber): 0%
inhibition rate, Rape Root (Rape): 50%
inhibition rate, Rape Stem (Rape): 50%
inhibition rate, Radish Root (Radish): 50%
inhibition rate, Radish Stem (Radish): 20%
efficiency, Abutilon (Abutilon; Postemergence spraying): 60%
efficiency, Abutilon (Abutilon; Pre-emergence soil treatment): 0%
efficiency, Crabgrass (Crabgrass; Postemergence spraying): 0%
efficiency, Crabgrass (Crabgrass; Pre-emergence soil treatment): 0%
efficiency, Dog point (Dog point; Postemergence spraying): 0%
efficiency, Dog point (Dog point; Pre-emergence soil treatment): 0%
efficiency, Eclipta prostrata (Eclipta prostrata; Postemergence spraying): 80%
efficiency, Eclipta prostrata (Eclipta prostrata; Pre-emergence soil treatment): 0%
efficiency, amaranthus retroflexus (amaranthus retroflexus; Postemergence spraying): 80%
efficiency, amaranthus retroflexus (amaranthus retroflexus; Pre-emergence soil treatment): 50%
efficiency, Small quinoa (Small quinoa; Postemergence spraying): 60%
efficiency, Small quinoa (Small quinoa; Pre-emergence soil treatment): 25%
herbicidal activity on broadleaf weeds targets [1]: herbicidal activity
activity on the growth of broadleaf weeds [1]: inhibitory activity
activity for grass targets such as crabgrass and dog point [2]: poor activity
activity on grass weeds such as crabgrass, dog point [2]: almost have no activity
efficiency, Mustard (Mustard; Postemergence spraying): 80%
efficiency, Mustard (Mustard; Pre-emergence soil treatment): 30%

CON=C(C(=O)OC)c1ccccc1COc1cccc(-c2ncccc2C)c1 [Compound 83]
inhibition rate, Wheat Root (Wheat): 60%
inhibition rate, Wheat Stem (Wheat): 20%
inhibition rate, Chinese sorghum Root (Chinese sorghum): 80%
inhibition rate, Chinese sorghum Stem (Chinese sorghum): 30%
inhibition rate, Barnyardgrass Root (Barnyardgrass): 80%
inhibition rate, Barnyardgrass Stem (Barnyardgrass): 0%
inhibition rate, Cucumber Root (Cucumber): 80%
inhibition rate, Cucumber Stem (Cucumber): 30%
inhibition rate, Rape Root (Rape): 80%
inhibition rate, Rape Stem (Rape): 50%
inhibition rate, Radish Root (Radish): 50%
inhibition rate, Radish Stem (Radish): 50%
efficiency, Abutilon (Abutilon; Postemergence spraying): 30%
efficiency, Abutilon (Abutilon; Pre-emergence soil treatment): 0%
efficiency, Crabgrass (Crabgrass; Postemergence spraying): 0%
efficiency, Crabgrass (Crabgrass; Pre-emergence soil treatment): 0%
efficiency, Dog point (Dog point; Postemergence spraying): 0%
efficiency, Dog point (Dog point; Pre-emergence soil treatment): 0%
efficiency, Eclipta prostrata (Eclipta prostrata; Postemergence spraying): 0%
efficiency, Eclipta prostrata (Eclipta prostrata; Pre-emergence soil treatment): 0%
efficiency, amaranthus retroflexus (amaranthus retroflexus; Postemergence spraying): 20%
efficiency, amaranthus retroflexus (amaranthus retroflexus; Pre-emergence soil treatment): 20%
efficiency, Small quinoa (Small quinoa; Postemergence spraying): 50%
efficiency, Small quinoa (Small quinoa; Pre-emergence soil treatment): 30%
herbicidal activity on broadleaf weeds targets [1]: herbicidal activity
activity on the growth of broadleaf weeds [1]: inhibitory activity
activity for grass targets such as crabgrass and dog point [2]: poor activity
activity on grass weeds such as crabgrass, dog point [2]: almost have no activity
efficiency, Mustard (Mustard; Postemergence spraying): 0%
efficiency, Mustard (Mustard; Pre-emergence soil treatment): 0%

CON=C(C(=O)OC)c1ccccc1COc1cccc(-c2cc(C)ccn2)c1 [Compound 84]
inhibition rate, Wheat Root (Wheat): 0%
inhibition rate, Wheat Stem (Wheat): 0%
inhibition rate, Chinese sorghum Root (Chinese sorghum): 0%
inhibition rate, Chinese sorghum Stem (Chinese sorghum): 0%
inhibition rate, Barnyardgrass Root (Barnyardgrass): 80%
inhibition rate, Barnyardgrass Stem (Barnyardgrass): 0%
inhibition rate, Cucumber Root (Cucumber): 30%
inhibition rate, Cucumber Stem (Cucumber): 0%
inhibition rate, Rape Root (Rape): 50%
inhibition rate, Rape Stem (Rape): 0%
inhibition rate, Radish Root (Radish): 0%
inhibition rate, Radish Stem (Radish): 0%

CON=C(C(=O)OC)c1ccccc1COc1cccc(-c2ncc(Br)cc2[N+](=O)[O-])c1 [Compound 104]
inhibition rate, Wheat Root (Wheat): 0%
inhibition rate, Wheat Stem (Wheat): 0%
inhibition rate, Chinese sorghum Root (Chinese sorghum): 0%
inhibition rate, Chinese sorghum Stem (Chinese sorghum): 0%
inhibition rate, Barnyardgrass Root (Barnyardgrass): 0%
inhibition rate, Barnyardgrass Stem (Barnyardgrass): 0%
inhibition rate, Cucumber Root (Cucumber): 20%
inhibition rate, Cucumber Stem (Cucumber): 0%
inhibition rate, Rape Root (Rape): 50%
inhibition rate, Rape Stem (Rape): 0%
inhibition rate, Radish Root (Radish): 0%
inhibition rate, Radish Stem (Radish): 0%

CON=C(C(=O)OC)c1ccccc1COc1cccc(-c2c(Cl)cncc2Cl)c1 [Compound 110]
inhibition rate, Wheat Root (Wheat): 0%
inhibition rate, Wheat Stem (Wheat): 0%
inhibition rate, Chinese sorghum Root (Chinese sorghum): 0%
inhibition rate, Chinese sorghum Stem (Chinese sorghum): 0%
inhibition rate, Barnyardgrass Root (Barnyardgrass): 0%
inhibition rate, Barnyardgrass Stem (Barnyardgrass): 0%
inhibition rate, Cucumber Root (Cucumber): 20%
inhibition rate, Cucumber Stem (Cucumber): 0%
inhibition rate, Rape Root (Rape): 20%
inhibition rate, Rape Stem (Rape): 0%
inhibition rate, Radish Root (Radish): 0%
inhibition rate, Radish Stem (Radish): 0%
